Experimental data reported in ChEMBL document CHEMBL3526061, “Glucuronidation of edaravone by human liver and kidney microsomes: biphasic kinetics and identification of UGT1A9 as the major UDP-glucuronosyltransferase isoform” (Drug Metab Dispos, 2012).

Assays:
Format in all cases: ADME
[1] = test system: Liver microsome; assay: Drug metabolism in human liver microsomes assessed as drug glucuronidation in presence of 5 to 35 uM androsterone by LC-MS/MS method
[2] = target: T1, UDP-glucuronosyltransferase 2B17 (Homo sapiens, UniProt O75795); assay: Activity of human recombinant UGT2B17 expressed in insect cells assessed as enzyme mediated glucuronidation in presence of 5 to 35 uM androsterone by LC-MS/MS method
T1 sequence (O75795 whole entry): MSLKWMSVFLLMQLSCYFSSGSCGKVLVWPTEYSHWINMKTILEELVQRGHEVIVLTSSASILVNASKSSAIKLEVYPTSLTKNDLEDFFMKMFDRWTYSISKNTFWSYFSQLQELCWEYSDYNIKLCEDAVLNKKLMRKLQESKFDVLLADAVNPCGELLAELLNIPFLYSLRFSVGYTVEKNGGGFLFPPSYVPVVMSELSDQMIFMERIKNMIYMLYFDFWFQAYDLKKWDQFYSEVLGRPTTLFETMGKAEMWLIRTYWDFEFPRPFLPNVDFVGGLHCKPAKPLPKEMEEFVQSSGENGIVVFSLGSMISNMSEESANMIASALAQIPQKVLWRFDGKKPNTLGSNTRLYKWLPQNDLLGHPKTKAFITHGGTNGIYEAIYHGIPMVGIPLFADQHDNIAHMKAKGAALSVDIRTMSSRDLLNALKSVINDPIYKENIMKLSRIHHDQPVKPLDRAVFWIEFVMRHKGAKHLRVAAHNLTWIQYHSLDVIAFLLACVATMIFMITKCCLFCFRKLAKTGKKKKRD

[3] = target: T2, UDP-glucuronosyltransferase 1A9 (Homo sapiens, UniProt O60656); assay: Activity of human recombinant UGT1A9 expressed in insect cells assessed as enzyme mediated glucuronidation in presence of 100 to 1000 uM propofol by LC-MS/MS method
T2 sequence (O60656 whole entry): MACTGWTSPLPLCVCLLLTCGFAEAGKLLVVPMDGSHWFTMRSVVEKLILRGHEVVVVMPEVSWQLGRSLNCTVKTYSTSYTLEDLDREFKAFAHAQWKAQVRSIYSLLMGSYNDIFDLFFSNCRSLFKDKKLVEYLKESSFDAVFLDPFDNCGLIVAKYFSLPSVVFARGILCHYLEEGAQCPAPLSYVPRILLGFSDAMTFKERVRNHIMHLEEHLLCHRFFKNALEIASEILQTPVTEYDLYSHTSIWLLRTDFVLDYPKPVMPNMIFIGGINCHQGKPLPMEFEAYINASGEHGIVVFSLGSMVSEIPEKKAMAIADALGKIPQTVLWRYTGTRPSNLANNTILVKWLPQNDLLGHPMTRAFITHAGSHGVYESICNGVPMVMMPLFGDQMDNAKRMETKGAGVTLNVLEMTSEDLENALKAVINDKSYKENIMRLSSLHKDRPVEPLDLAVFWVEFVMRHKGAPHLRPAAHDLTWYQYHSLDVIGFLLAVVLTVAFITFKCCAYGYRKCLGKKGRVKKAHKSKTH

[4] = target: T2, UDP-glucuronosyltransferase 1A9; assay: Activity of human recombinant UGT1A9 expressed in insect cells assessed as enzyme mediated glucuronidation at 12.5 uM by LC-MS/MS method
[5] = target: T3, UDP-glucuronosyltransferase 2B4 (Homo sapiens, UniProt P06133); assay: Activity of human recombinant UGT2B4 expressed in insect cells assessed as enzyme mediated glucuronidation at 500 uM by LC-MS/MS method
T3 sequence (P06133 whole entry): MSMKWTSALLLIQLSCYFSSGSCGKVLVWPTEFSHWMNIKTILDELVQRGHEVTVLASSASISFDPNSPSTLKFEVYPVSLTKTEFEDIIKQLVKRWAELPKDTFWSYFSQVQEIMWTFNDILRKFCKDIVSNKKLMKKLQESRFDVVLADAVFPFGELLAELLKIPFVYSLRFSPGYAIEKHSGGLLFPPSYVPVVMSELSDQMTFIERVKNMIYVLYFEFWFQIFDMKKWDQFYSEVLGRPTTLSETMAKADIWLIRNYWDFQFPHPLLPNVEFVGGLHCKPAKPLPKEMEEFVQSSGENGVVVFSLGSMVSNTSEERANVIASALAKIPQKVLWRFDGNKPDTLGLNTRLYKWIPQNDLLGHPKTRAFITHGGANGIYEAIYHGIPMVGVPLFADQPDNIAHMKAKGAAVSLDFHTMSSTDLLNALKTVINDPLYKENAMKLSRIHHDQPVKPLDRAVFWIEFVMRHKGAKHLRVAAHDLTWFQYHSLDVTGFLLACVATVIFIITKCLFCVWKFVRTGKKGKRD

[6] = target: T4, UDP-glucuronosyltransferase 1A4 (Homo sapiens, UniProt P22310); assay: Activity of human recombinant UGT1A4 expressed in insect cells assessed as enzyme mediated glucuronidation at 500 uM by LC-MS/MS method
T4 sequence (P22310 whole entry): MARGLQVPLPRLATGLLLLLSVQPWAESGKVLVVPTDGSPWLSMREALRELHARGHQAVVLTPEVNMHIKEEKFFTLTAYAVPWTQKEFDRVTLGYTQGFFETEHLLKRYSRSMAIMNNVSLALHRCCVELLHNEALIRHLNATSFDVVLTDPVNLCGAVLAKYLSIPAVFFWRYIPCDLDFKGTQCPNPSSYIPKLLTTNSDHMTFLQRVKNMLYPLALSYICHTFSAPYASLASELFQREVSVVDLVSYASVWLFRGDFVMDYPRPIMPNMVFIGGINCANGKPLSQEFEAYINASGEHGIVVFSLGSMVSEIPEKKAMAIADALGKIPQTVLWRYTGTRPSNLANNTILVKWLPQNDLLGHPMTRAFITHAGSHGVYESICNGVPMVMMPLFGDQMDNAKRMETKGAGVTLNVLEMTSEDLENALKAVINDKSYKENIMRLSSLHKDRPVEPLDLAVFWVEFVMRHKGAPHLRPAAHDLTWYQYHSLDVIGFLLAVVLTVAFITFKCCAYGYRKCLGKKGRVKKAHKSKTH

[7] = target: T1, UDP-glucuronosyltransferase 2B17; assay: Activity of human recombinant UGT2B17 expressed in insect cells assessed as enzyme mediated glucuronidation at 12.5 uM by LC-MS/MS method

Drug metabolism [1]: metabolite_detected | Drug metabolism [2]: metabolite_not_detected | Drug metabolism [3]: metabolite_not_detected | Drug metabolism [4]: metabolite_detected | Drug metabolism [5]: metabolite_detected | Drug metabolism [6]: metabolite_not_detected | Drug metabolism [7]: metabolite_detected
SMILES: CC1=NN(c2ccccc2)C(=O)C1 [EDARAVONE]
